Laboratory results: patent US20040175401A1, “Enhanced parmacokinetic profile of hydrophobic substances” (priority 2001, published 2004)
Like-named read-outs stand apart in the source and are kept apart here.

Experiments:
[1] = n-octanol/water partition coefficient LogPoct calculated from solubility data; details: calculated as logPoct = (0.99 - logSw)/1.34
Description: where logSw is the molar solubility and logPoct is the water-oil partition coefficient. Using this equation, values for logPoct can be calculated from solubility data.

[2] = molar aqueous solubility, log value; cited from earlier work
[3] = for AUC(0-∞) / Cmax / T1/2 / Tmax: mean, n = 6
Procedure: Six Yucatan mini-pigs weighing 20-25 kg were used. […] A total of 6 animals were utilized in a full crossover design where each animal received a 1.0 mg dose by all administration routes in an injection volume of 0.1 mL.
The intravenous dose was administered an ear vein catheter. Subcutaneous delivery was through a standard 0.5 inch, 30 gauge needle. Delivery to the dermis was through a three point microneedle array having three 34 gauge needles with 7 mm spacing and 1 mm depth to right flank of the animal between the rib cage and the rear leg. Subcutaneous and intravenous administration was by manual injection seconds. Administration to the dermis was at a rate of 90 μL/min by a syringe pump.
The study design was a full crossover with each animal receiving intravenous, subcutaneous and dermal administration. Each animal received three treatments over a two-week period with a minimal washout period of 2 days between subsequent doses. Dosing was according to the schedule shown below in Table 2.
Blood samples were obtained from the vena cava access port immediately before dosing and at 5, 10, 15, 20, 30, 45, 60 minutes and 2, 3, 4, 6, 8, 10, 14 and 24 hours after administration. Timing was started at the cessation of injection for a given method. The venous samples were collected into EDTA containing Vacutainer tubes, centrifuged at approximately 1000 g for 10 minutes at 4° C. After centrifugation, the plasma layer was transferred to plastic storage vials and stored frozen at −70° C. until assayed.
Assay of the pig plasma samples was performed by HPLC analysis. Results are shown below in Tables 3
Pharmacokinetic parameters were estimated using Watson Drug Metabolism Laboratory Information Management System, version 6.2.0.02 (Innaphase Corp., Philadelphia, Pa.). Parameters determined were the maximal plasma concentration, Cmax, time to maximal plasma concentration Tmax, area under the curve estimated to t=infinity, Tmax and the half-life for decrease in plasma concentration, T1/2.

## O=C1NC(=O)C2(CC2)C(=O)N1 [5,5-(CH2)2-barbituric acid]
[1]
  LogPoct: 2.15

## O=c1[nH]cnc2c1ncn2[C@H]1CC[C@@H](CO)O1 [Didanosine]
[2]
  LogSw: −0.90 moles/L

## C=CCC1(CC)C(=O)NC(=O)NC1=O [5-Et-5-allyl-barbituric acid]
[2]
  LogSw: −1.61 moles/L
[1]
  LogPoct: 1.64

## C=CC(C)(O)CCC=C(C)C (stereo not shown) [linalool]
[2]
  LogSw: −2.00 moles/L
[1]
  LogPoct: 2.23

## C=C(C)C1CC=C(C)[C@@H](O)C1 (stereo partly shown) [carveol]
[2]
  LogSw: −1.88 moles/L
[1]
  LogPoct: 2.14

## CCCCCCCC(=O)OCN1C(=O)NC(c2ccccc2)(c2ccccc2)C1=O [3-octanoloxymethyl-5,5-diphenylhydantoin]
[2]
  LogSw: −6.52 moles/L
[1]
  LogPoct: 5.60

## CC(=O)Nc1nc2c(ncn2COCCOC(C)=O)c(=O)[nH]1 [N2,O-diacetylacyclovir]
[2]
  LogSw: −2.70 moles/L
[1]
  LogPoct: 2.75

## dimethylthiolethione
[2]
  LogSw: −3.42 moles/L
[1]
  LogPoct: 3.29

## CC(C)=CCC1(C(C)(C)C)C(=O)NC(=O)NC1=O [5-tBu-5-(3-methylbut-2-enyl)-barbituric acid]
[1]
  LogPoct: 3.39

## C=CCC1(C)C(=O)NC(=O)NC1=O [5-Me-5-allylbartituric acid]
[1]
  LogPoct: 1.60

## CN[C@@H]1Cc2cccc3[nH]c(=S)n(c23)C1 [(R)-5,6-dihydro-5-(methylamino)-4H-imidazo[4,5-ij]-quinoline-2(1H)-thione]
[3]; ID (dermis), 1.0 mg dose, 5 min
  Plasma Concentration, Mean: 24.8 ng/mL
[3]; ID (dermis), 1.0 mg dose, 10 min
  Plasma Concentration, Mean: 22.5 ng/mL
[3]; ID (dermis), 1.0 mg dose, 15 min
  Plasma Concentration, Mean: 16.4 ng/mL
[3]; ID (dermis), 1.0 mg dose, 20 min
  Plasma Concentration, Mean: 18.0 ng/mL
[3]; ID (dermis), 1.0 mg dose, 30 min
  Plasma Concentration, Mean: 14.0 ng/mL
[3]; ID (dermis), 1.0 mg dose, 45 min
  Plasma Concentration, Mean: 9.9 ng/mL
[3]; ID (dermis), 1.0 mg dose, 1 hr
  Plasma Concentration, Mean: 9.0 ng/mL
[3]; ID (dermis), 1.0 mg dose, 2 hr
  Plasma Concentration, Mean: 5.7 ng/mL
[3]; ID (dermis), 1.0 mg dose, 3 hr
  Plasma Concentration, Mean: 4.2 ng/mL
[3]; ID (dermis), 1.0 mg dose, 4 hr
  Plasma Concentration, Mean: 3.6 ng/mL
[3]; ID (dermis), 1.0 mg dose, 6 hr
  Plasma Concentration, Mean: 0.4 ng/mL
[3]; ID (dermis), 1.0 mg dose, 8 hr
  Plasma Concentration, Mean: 0 ng/mL
[3]; ID (dermis), 1.0 mg dose, 10 hr
  Plasma Concentration, Mean: 0 ng/mL
[3]; ID (dermis), 1.0 mg dose, 14 hr
  Plasma Concentration, Mean: 0 ng/mL
[3]; ID (dermis), 1.0 mg dose, 24 hr
  Plasma Concentration, Mean: 0 ng/mL
[3]; ID (dermis), 1.0 mg dose
  AUC(0-∞): 33.6 ng·h/mL
  Cmax: 26.7 ng/mL
  T1/2: 96.6 min
  Tmax: 8.34 min
[3]; ID versus IV, both different from SC
  Heterogeneity of Regression analysis of plasma values, dermis versus intravenous administration: not different from each other
[3]; ID versus SC, 1.0 mg dose
  Cmax values following administration to the dermis compared with subcutaneous administration: consistently greater
  Plasma levels of drug after administration into the dermis compared with subcutaneous administration: higher plasma levels
  Tmax values following administration to the dermis compared with subcutaneous administration: consistently lesser
[3]; IV, 1.0 mg dose, 5 min
  Plasma Concentration, Mean: 29.8 ng/mL
[3]; IV, 1.0 mg dose, 10 min
  Plasma Concentration, Mean: 20.5 ng/mL
[3]; IV, 1.0 mg dose, 15 min
  Plasma Concentration, Mean: 18.5 ng/mL
[3]; IV, 1.0 mg dose, 20 min
  Plasma Concentration, Mean: 15.3 ng/mL
[3]; IV, 1.0 mg dose, 30 min
  Plasma Concentration, Mean: 13.1 ng/mL
[3]; IV, 1.0 mg dose, 45 min
  Plasma Concentration, Mean: 10.7 ng/mL
[3]; IV, 1.0 mg dose, 1 hr
  Plasma Concentration, Mean: 9.1 ng/mL
[3]; IV, 1.0 mg dose, 2 hr
  Plasma Concentration, Mean: 6.7 ng/mL
[3]; IV, 1.0 mg dose, 3 hr
  Plasma Concentration, Mean: 2.8 ng/mL
[3]; IV, 1.0 mg dose, 4 hr
  Plasma Concentration, Mean: 1.6 ng/mL
[3]; IV, 1.0 mg dose, 6 hr
  Plasma Concentration, Mean: 2.6 ng/mL
[3]; IV, 1.0 mg dose, 8 hr
  Plasma Concentration, Mean: 0 ng/mL
[3]; IV, 1.0 mg dose, 10 hr
  Plasma Concentration, Mean: 0 ng/mL
[3]; IV, 1.0 mg dose, 14 hr
  Plasma Concentration, Mean: 0 ng/mL
[3]; IV, 1.0 mg dose, 24 hr
  Plasma Concentration, Mean: 0 ng/mL
[3]; IV, 1.0 mg dose
  AUC(0-∞): 32.4 ng·h/mL
  Cmax: 29.8 ng/mL
  T1/2: 87 min
  Tmax: 4.98 min
[3]; SC, 1.0 mg dose, 5 min
  Plasma Concentration, Mean: 10.0 ng/mL
[3]; SC, 1.0 mg dose, 10 min
  Plasma Concentration, Mean: 15.3 ng/mL
[3]; SC, 1.0 mg dose, 15 min
  Plasma Concentration, Mean: 16.0 ng/mL
[3]; SC, 1.0 mg dose, 20 min
  Plasma Concentration, Mean: 14.5 ng/mL
[3]; SC, 1.0 mg dose, 30 min
  Plasma Concentration, Mean: 14.0 ng/mL
[3]; SC, 1.0 mg dose, 45 min
  Plasma Concentration, Mean: 9.9 ng/mL
[3]; SC, 1.0 mg dose, 1 hr
  Plasma Concentration, Mean: 8.9 ng/mL
[3]; SC, 1.0 mg dose, 2 hr
  Plasma Concentration, Mean: 5.6 ng/mL
[3]; SC, 1.0 mg dose, 3 hr
  Plasma Concentration, Mean: 4.1 ng/mL
[3]; SC, 1.0 mg dose, 4 hr
  Plasma Concentration, Mean: 2.2 ng/mL
[3]; SC, 1.0 mg dose, 6 hr
  Plasma Concentration, Mean: 1.6 ng/mL
[3]; SC, 1.0 mg dose, 8 hr
  Plasma Concentration, Mean: 0.6 ng/mL
[3]; SC, 1.0 mg dose, 10 hr
  Plasma Concentration, Mean: 0 ng/mL
[3]; SC, 1.0 mg dose, 14 hr
  Plasma Concentration, Mean: 0 ng/mL
[3]; SC, 1.0 mg dose, 24 hr
  Plasma Concentration, Mean: 0 ng/mL
[3]; SC, 1.0 mg dose
  AUC(0-∞): 32.1 ng·h/mL
  Cmax: 16.9 ng/mL
  T1/2: 90 min
  Tmax: 13.3 min

## CC12CCC(C1)C(C)(C)C2O (stereo not shown) [fenchyl_alcohol]
[2]
  LogSw: −2.27 moles/L
[1]
  LogPoct: 2.43

## CC(C)(C)NC(=O)[C@@H]1C[C@@H]2CCCC[C@@H]2CN1C[C@@H](O)[C@H](Cc1ccccc1)NC(=O)[C@H](CC(N)=O)NC(=O)c1ccc2ccccc2n1 [Saquinavir]
[2]
  LogSw: −4.33 moles/L
[1]
  LogPoct: 3.97

## O=C1NC(=O)C(c2ccccc2)(c2ccccc2)N1 [5,5-diphenyhlhydantoin]
[2]
  LogSw: −4.10 moles/L
[1]
  LogPoct: 3.80

## CC(=O)OCCOCn1cnc2c(=O)[nH]c(N)nc21 [O-acetylacyclovir]
[2]
  LogSw: −0.86 moles/L
[1]
  LogPoct: 1.38

## O=C1NC(=O)C2(CCC2)C(=O)N1 [5,5-(CH2)3-barbituricacid]
[1]
  LogPoct: 1.98

## C=C(C)[C@H]1CC=C(C)CC1 [limonene]
[2]
  LogSw: −3.41 moles/L

## CCCCC(=O)OCN1C(=O)NC(c2ccccc2)(c2ccccc2)C1=O [3-pentanoyloxymethyl-5,5-diphenylhydantoin]
[2]
  LogSw: −4.68 moles/L

## S=c1ccss1 [dithiolethione]
[1]
  LogPoct: 2.59

## C=CC(=C)CCC=C(C)C [Myrcene]
[2]
  LogSw: −3.58 moles/L
[1]
  LogPoct: 3.41

## CCCC(C)C1(CC)C(=O)NC(=S)NC1=O (stereo not shown) [5-Et-5-(1-methylbutyl)-2-thiobarbituric acid]
[2]
  LogSw: −3.68 moles/L
[1]
  LogPoct: 3.49

## O=C1NC(=O)C(c2ccccc2)(c2ccccc2)C(=O)N1 [5,5-diphenylbarbituric acid]
[1]
  LogPoct: 3.87

## O=C1NC(=S)NC(=O)C12CCCCC2 [5,5-(CH2)5-2-thiobarbituric acid]
[2]
  LogSw: −3.46 moles/L
[1]
  LogPoct: 3.32

## C=C(C)C1CC=C(C)C(=O)C1 (stereo not shown) [Carvone]
[2]
  LogSw: −1.67 moles/L
[1]
  LogPoct: 1.99

## O=C1NC(=O)C2(CCCCCCCCCC2)C(=O)N1 [5,5-(CH2)10-barbituric acid]
[2]
  LogSw: −4.59 moles/L
[1]
  LogPoct: 4.16

## O=C1NC(=O)C2(CCCCC2)C(=O)N1 [5,5-(CH2)5-barbituric acid]
[1]
  LogPoct: 3.02

## CC(=O)Nc1nc2c(ncn2COCCO)c(=O)[nH]1 [N2-acetylacyclovir]
[1]
  LogPoct: 2.17

## COc1ccc(-c2cc(=S)ss2)cc1 [Anethole trithione]
[1]
  LogPoct: 5.07

## O=C1NC(=O)C2(CCCC2)C(=O)N1 [5,5-(CH2)4-barbituric acid]
[1]
  LogPoct: 3.97

## C=CCC1(C(C)C)C(=O)NC(=O)NC1=O [5-iPr-5-allyl-barbituric acid]
[2]
  LogSw: −1.71 moles/L

## CC1(c2ccccc2)C(=O)NC(=O)NC1=O [5-Me-5-phenylbarbituric acid]
[2]
  LogSw: −2.38 moles/L
[1]
  LogPoct: 2.51

## CC(=O)/C=C/C1C(C)=CCCC1(C)C (stereo not shown) [a-ionone]
[2]
  LogSw: −3.06 moles/L

## CCC1(CC)C(=O)NC(=S)NC1=O [5-diethyl-2-thiobarbituric acid]
[1]
  LogPoct: 2.36

## O=C1NC(=O)C2(CCCCCCC2)C(=O)N1 [5,5-(CH2)7-barbituric acid]
[1]
  LogPoct: 2.96

## CC(C)C1(C(C)C)C(=O)NC(=O)NC1=O [5,5-di-iPr-barbituric acid]
[1]
  LogPoct: 2.81

## CCC1(CC=C(C)C)C(=O)NC(=O)NC1=O [5-Et-5-(3-methylbut-2-enyl)-barbituric acid]
[1]
  LogPoct: 2.42
